{"source": "patent US11203576B2", "about": "“Aurora kinase and Janus kinase inhibitors for prevention of graft versus host disease” (H. LEE MOFFITT CANCER CENTER AND RESEARCH INSTITUTE, INC., priority 2016, dated 2021)", "key": {"[1]": {"system": "U937 cells", "assay": "CTL generation and tumor lysis assays", "assay_type": "cell-based, human", "details": "NSG mice, 50 mg/kg daily, irradiated U937 on days 0 and +7, vs vehicle; listed as AJI-100", "protocol": "NSG mice were transplanted with human PBMCs as described above, and treated with either AJI-100 (50 mg/kg daily) or vehicle control. Additionally, recipient mice received an inoculum of irradiated U937 cells (ATCC, 10^7/mouse) on days 0 and +7. Mice were euthanized between days +10 to +12, spleens were harvested, and human CD8^+ T-cells were isolated by magnetic bead separation. Fresh U937 target cells were labeled with Calcein-AM for 30 minutes, washed, and then cultured with the purified CD8^+ T-cells at varying effector to target ratios for 4 hours at 37° C. No additional drugs were added during this final culture. […] Percent lysis was calculated as follows: [(test fluorescence−spontaneous fluorescence)/(maximum fluorescence−spontaneous fluorescence)]×100."}, "[2]": {"assay": "Bioavailability", "details": "in vivo"}, "[3]": {"target": "JAK2 (Homo sapiens, UniProt O60674)", "sequence (O60674 whole entry)": "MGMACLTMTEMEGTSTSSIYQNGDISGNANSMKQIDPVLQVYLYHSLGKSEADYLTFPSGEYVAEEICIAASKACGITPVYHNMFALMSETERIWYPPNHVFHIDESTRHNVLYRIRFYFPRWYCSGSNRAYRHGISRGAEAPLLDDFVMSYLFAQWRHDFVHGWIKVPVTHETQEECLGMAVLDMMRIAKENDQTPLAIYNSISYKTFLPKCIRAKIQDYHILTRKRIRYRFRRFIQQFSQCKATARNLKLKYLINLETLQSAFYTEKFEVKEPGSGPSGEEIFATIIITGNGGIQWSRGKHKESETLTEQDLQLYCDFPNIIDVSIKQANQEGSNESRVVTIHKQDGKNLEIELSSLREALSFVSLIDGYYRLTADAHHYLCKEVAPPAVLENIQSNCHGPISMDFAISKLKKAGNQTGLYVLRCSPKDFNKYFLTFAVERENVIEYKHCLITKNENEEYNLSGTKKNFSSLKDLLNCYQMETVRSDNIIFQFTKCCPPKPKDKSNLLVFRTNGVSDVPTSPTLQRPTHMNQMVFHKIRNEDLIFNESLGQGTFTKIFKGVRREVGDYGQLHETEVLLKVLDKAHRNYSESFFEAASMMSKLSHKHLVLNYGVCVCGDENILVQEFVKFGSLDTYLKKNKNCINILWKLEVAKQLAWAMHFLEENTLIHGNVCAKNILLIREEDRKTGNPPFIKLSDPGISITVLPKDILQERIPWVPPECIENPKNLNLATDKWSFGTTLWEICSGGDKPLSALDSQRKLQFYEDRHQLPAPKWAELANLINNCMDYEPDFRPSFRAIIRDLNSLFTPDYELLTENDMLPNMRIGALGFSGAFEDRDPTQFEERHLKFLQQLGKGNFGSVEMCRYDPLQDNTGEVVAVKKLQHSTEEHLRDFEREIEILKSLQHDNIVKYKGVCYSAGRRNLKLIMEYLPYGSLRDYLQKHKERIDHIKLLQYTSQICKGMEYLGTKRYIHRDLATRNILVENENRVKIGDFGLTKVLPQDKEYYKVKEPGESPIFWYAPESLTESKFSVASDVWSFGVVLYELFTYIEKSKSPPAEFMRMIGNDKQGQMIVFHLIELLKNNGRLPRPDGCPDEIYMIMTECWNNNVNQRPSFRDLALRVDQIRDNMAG", "assay": "Kinase target screen, panel of 140 kinases", "assay_type": "biochemical", "method": "(§1) Allogeneic mixed leukocyte reactions (alloMLRs) are standard assays used to assess human T cell proliferation against polyclonal or antigen-specific stimuli. In alloMLRs consisting of human T cells and allogeneicmonocyte-derived dendritic cells (DCs), the JAK2 inhibitor TG101348 reduced alloreactive T cell proliferation at concentrations of 350 nM and greater as previously reported (FIG. 9A). […] Synergistic suppression of T cells allostimulated by DCs was achieved when TG101348 and alisertib were added together at a ratio of 1:5, respectively, with a calculated combination index (CI) of <1 using the Chou-Talalay method (FIG. 9A). […] The chemical analogs AJI-214 and AJI-100 were designed and synthesized at the Moffitt Cancer Center and shown to inhibit Aurora kinase A and JAK2 with similar potency. […] Because AJI-100 is tolerated in mouse models, a kinase target screen was performed on AJI-100 to verify its activity against Aurora kinase A and JAK2 among a panel of 140 kinases."}, "[4]": {"target": "T1, Aurora kinase A (Homo sapiens, UniProt O14965)", "T1 sequence (O14965 1-403)": "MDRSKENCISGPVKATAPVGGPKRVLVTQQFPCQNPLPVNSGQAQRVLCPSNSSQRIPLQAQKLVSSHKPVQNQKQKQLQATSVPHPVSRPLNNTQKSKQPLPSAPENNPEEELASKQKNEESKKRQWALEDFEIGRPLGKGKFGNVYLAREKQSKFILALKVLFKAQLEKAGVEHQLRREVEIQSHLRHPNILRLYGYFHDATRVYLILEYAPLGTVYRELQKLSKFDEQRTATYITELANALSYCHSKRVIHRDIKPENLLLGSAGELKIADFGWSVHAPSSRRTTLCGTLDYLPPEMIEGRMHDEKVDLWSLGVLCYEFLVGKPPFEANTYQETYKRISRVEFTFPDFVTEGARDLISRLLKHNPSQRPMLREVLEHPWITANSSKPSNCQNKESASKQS", "assay": "Kinase target screen, panel of 140 kinases", "assay_type": "biochemical", "method": "as §1"}, "[5]": {"system": "5′ AMP activated protein kinase (AMPK)", "assay": "Kinase target screen, panel of 140 kinases", "assay_type": "biochemical", "method": "as §1"}}}
{"smiles": "NC(=O)c1ccc(Nc2ncc(F)c(Nc3ccccc3)n2)cc1", "note": "[bisanilinopyrimidine (II), 5-Fluoro-N4-phenyl-N2-[4-(4-carboxamide)phenyl]pyrimidine-2,4-diamine]", "values": [{"measurement": "in vivo generation of U937-specific CTL and killing of U937 targets", "setting": "[1]", "value": "did not inhibit CTL generation"}, {"measurement": "bioavailability", "setting": "[2]", "value": "superior bioavailability"}, {"measurement": "inhibition of JAK2 in kinase panel", "setting": "[3]", "value": "among the top three kinases inhibited"}, {"measurement": "inhibition of Aurora kinase A in kinase panel", "setting": "[4]", "value": "among the top three kinases inhibited"}, {"measurement": "inhibition of AMPK", "setting": "[5]", "value": "inhibits"}]}
